Results: patent publication US20250049972A1, “METHOD OF DETECTING PROSTATE CANCER IN A HUMAN SUBJECT USING A Cu 64 PSMA I&T INJECTION” (Curium US LLC, priority 2023, published 2025)

Tests used:
[1] = Phase 2 diagnostic image quality, 3-point scale, independent readers; type: in vivo, human
Procedure: Diagnostic quality was assessed for all scans using a 3-point scale and then percentages for each category were summarized for each reader and time point. No formal hypothesis testing was performed.

[2] = design: species or system human; details: in vivo
Procedure: Safety was assessed in all patients following administration of copper Cu-64 PSMA I&T injection through collection of AE reporting, laboratory assessments, vital signs, and ECG. The Phase 2 portion assessed safety after copper Cu-64 PSMA I&T injection through collection of AEs 24 hours post-injection, lab assessments, vital signs, and ECGs.

prostate cancer lesions = experiment: Phase 2 PET/CT imaging: CLR, CDR and per patient sensitivity/specificity vs Composite Reference Standard, 3 blinded readers; type: in vivo, human; details: for Average Patient CDR: Average Correct Detection Rate (Standard Deviation) / Correct Localization Rate, region level / Number of Lesions Correctly Identified: IME Population; for Average Patient CDR: Average Correct Detection Rate (Standard Deviation) / Correct Localization Rate, region level: Phase 2; for Correct Localization Rate (region level CLR) / Number of Segments Correctly Identified / Pa Patient Specificity: Correct Patient Detection Rate / Pet Patient Sensitivity: Correct Patient Detection Rate: ITI Population; for Correct Localization Rate (region level CLR): 7-9 mCi; for Number of Lesions Correctly Identified: of 30 lesions truth; for Number of Segments Correctly Identified: of 30 segments truth
Procedure: A study was conducted to evaluate the use of Cu-64 PSMA I&T injection in imaging human patients with recurrent metastatic prostate cancer. The primary objectives were to determine efficacy on region and patient level and to assess safety for use with humans. The secondary objective was to assess image quality or AIQ using CLR and CDR. The study had two co-primary endpoints. First, region-level CLR defined as the percentage of regions containing at least one true PET positive lesion, with exactly localized correspondence between PET/CT imaging and the Composite Reference Standard regardless of any co-existent false positive findings, within the same region, out of all regions containing at least one PET positive finding. Second, patient-level CDR defined as the percentage of patients who have at least one true PET positive lesion, with exactly localized correspondence between PET imaging and the Composite Reference Standard, regardless of any co-existent false positive findings, out of all patients who are scanned. Both endpoints were measured for 1 and 4 hours post injection using PET scans. The study was powered to detect a CLR (detection rate) of greater than 60%. A sample size of 26 patients has an 80% power of detecting a true sensitivity of 85%. Key inclusion criteria included histologically proven prostate adenocarcinoma, prior radical prostatectomy, radiation therapy with curative intent, disease recurrence based on defined rise in PSA, and at least one extra prostatic site of disease suspected based on prior imaging or diagnosed by biopsy. Patients were administered 7-9 mCi Cu-64 PSMA I&T injection and then PET and/or CT images were acquired for all patients starting at approximately […] and 4 hours±30 minutes post Cu-64 PSMA I&T injection. Indeed, the images were collected from an approximate range of 45 minutes to 4 hours and 30 minutes post injection for all patients. The PET and CT images were interpreted independently by three readers blinded to all patient information. Each patient study was assessed and scored for the detection of prostate cancer. Specifically, each reader categorized images as “Disease” or “No Disease” based only on tumor uptake of Cu-64 PSMA-I&T in each of the five regions: (1) prostate bed or prostate gland, (2) lymph nodes (pelvic), (3) lymph nodes (extra pelvic), (4) bone, and (5) viscera/soft tissue. Analysis of the reads were used for determination of the CLR and CDR by comparison to the Composite Reference Standard. The Composite Reference Standard was defined as local histopathology obtained within 60 days before or following Cu-64 PSMA I&T PET/CT, or, if histopathology was not available, anatomical correlation of conventional image findings (e.g., targeted MRI or CT or any FDA-approved PET PSMA agent) obtained within 60 days before or following Cu-64 PSMA I&T PET/CT. A statistical threshold (with a lower bound of the 95% confidence interval) of 60% was prespecified for both CLR and CDR endpoints. The Phase 2 portion of the study included a separate group of 26 patients with biochemical recurrent PC. The dose for the Phase 2 portion of the study was 9 mCi with an acceptable range of 7 to 9 mCi. PET/CT images were acquired for all patients at 1 hour (±15 minutes) and 4 hours (±0.5 hours) post injection. The PET/CT images were interpreted independently by 3 readers blinded to all patient information. Each patient was assessed and scored for the detection of prostate cancer lesions. Specifically, each reader categorized images as “Disease” or “No Disease” based only on tumor uptake of copper Cu-64 PSMA I&T in each of 5 regions: (1) prostate bed or prostate gland, (2) lymph nodes (pelvic), (3) lymph nodes (extra pelvic), (4) bone, and (5) viscera/soft tissue. Analysis of the reads was used for determination of the CLR and CDR for 1 hour and 4 hours post-injection imaging of copper Cu-64 PSMA I&T PET/CT by comparison to a composite reference standard collected for each enrolled patient. […]

[3] = all 3 readers at both 1 and 4 hours

## O=C(O)CC[C@H](NC(=O)N[C@@H](CCCCNC(=O)CCCCCCC(=O)NCCCC[C@@H](NC(=O)[C@@H](Cc1ccccc1)NC(=O)[C@@H](Cc1ccc(O)c(I)c1)NC(=O)CC[C@H](C(=O)O)N1CCN(CC(=O)O)CCN(CC(=O)O)CCN(CC(=O)O)CC1)C(=O)O)C(=O)O)C(=O)O [Cu-64 PSMA I&T, 64 Cu-(3S, 7S, 26R, 29R, 32R, 37R)-29-benzyl-32(4-hydroxy-3-iodobenzyl)-5, 13, 20, 28, 31, 34-hexaoxo-37-(4,7,10-tris(carboxymethyl)-1,4,7, 10-tetraazacyclododecan-1-yl)-4,6, 12, 21, 27, 30, 33-heptaazaheptatriacontane-1,3,7, 26, 37-pentacarboxylic acid, metal not drawn]
[1]; Reader 1, 1 Hour Post Dose
  Image Quality Acceptable, patients (%): 26 (100.00%)
[1]; Reader 1, 4 Hours Post Dose
  Image Quality Acceptable, patients (%): 26 (100.00%)
[1]; Reader 2, 1 Hour Post Dose
  Image Quality Acceptable, patients (%): 24 (92.31%)
[1]; Reader 2, 4 Hours Post Dose
  Image Quality Acceptable, patients (%): 26 (100.00%)
[1]; Reader 3, 1 Hour Post Dose
  Image Quality Acceptable, patients (%): 26 (100.00%)
[1]; Reader 3, 4 Hours Post Dose
  Image Quality Acceptable, patients (%): 26 (100.00%)
[1]; at both 1 and 4 hours
  image quality as assessed by the independent readers: acceptable
[2]
  patients who experienced at least 1 AE: 2
  relationship of the adverse events to study product: not related
  serious adverse events attributed to the injection: No serious adverse events
  seriousness of the adverse events: not serious
  severity of the adverse events: mild
Prostate cancer lesions; READER 1, 1 Hour Image
  Average Patient CDR: Average Correct Detection Rate (Standard Deviation): 84.21% (33.552%)
  Correct Localization Rate, region level: 86.67%
  Correct Localization Rate (region level CLR): 86.67%
  Number of Lesions Correctly Identified: 26
  Number of Segments Correctly Identified: 26
Prostate cancer lesions; READER 1, 1 Hour image
  Pa Patient Specificity: Correct Patient Detection Rate: 100.00%
  Pet Patient Sensitivity: Correct Patient Detection Rate: 100.00%
Prostate cancer lesions; READER 1, 4 Hour Image
  Average Patient CDR: Average Correct Detection Rate (Standard Deviation): 84.21% (33.552%)
  Correct Localization Rate, region level: 86.67%
  Pa Patient Specificity: Correct Patient Detection Rate: 100.00%
  Pet Patient Sensitivity: Correct Patient Detection Rate: 100.00%
  Correct Localization Rate (region level CLR): 86.67%
  Number of Lesions Correctly Identified: 26
  Number of Segments Correctly Identified: 26
Prostate cancer lesions; READER 2, 1 Hour Image
  Average Patient CDR: Average Correct Detection Rate (Standard Deviation): 77.19% (38.172%)
  Correct Localization Rate, region level: 76.7%
  Pa Patient Specificity: Correct Patient Detection Rate: 100.00%
  Pet Patient Sensitivity: Correct Patient Detection Rate: 100.00%
  Correct Localization Rate (region level CLR): 76.67%
  Number of Lesions Correctly Identified: 23
  Number of Segments Correctly Identified: 26
Prostate cancer lesions; READER 2, 4 Hour Image
  Average Patient CDR: Average Correct Detection Rate (Standard Deviation): 79.82% (37.916%)
  Correct Localization Rate, region level: 80.00%
  Pa Patient Specificity: Correct Patient Detection Rate: 100.00%
  Pet Patient Sensitivity: Correct Patient Detection Rate: 100.00%
  Correct Localization Rate (region level CLR): 80.00%
  Number of Lesions Correctly Identified: 24
  Number of Segments Correctly Identified: 24
Prostate cancer lesions; READER 3, 1 Hour Image
  Average Patient CDR: Average Correct Detection Rate (Standard Deviation): 80.70% (35.252%)
  Correct Localization Rate, region level: 80.110%
  Pa Patient Specificity: Correct Patient Detection Rate: 100.00%
  Pet Patient Sensitivity: Correct Patient Detection Rate: 100.00%
  Correct Localization Rate (region level CLR): 80.00%
  Number of Lesions Correctly Identified: 24
  Number of Segments Correctly Identified: 24
Prostate cancer lesions; READER 3, 4 Hour Image
  Average Patient CDR: Average Correct Detection Rate (Standard Deviation): 80.70% (35.252%)
  Correct Localization Rate, region level: 80.00%
  Pa Patient Specificity: Correct Patient Detection Rate: 100%
  Pet Patient Sensitivity: Correct Patient Detection Rate: 100.00%
  Correct Localization Rate (region level CLR): 80.00%
  Number of Lesions Correctly Identified: 24
  Number of Segments Correctly Identified: 24
Prostate cancer lesions; [3]
  patient level CDR vs prespecified threshold: > 60%
  region level CLR vs prespecified threshold: > 60%
Prostate cancer lesions; all patients, both 1 and 4 hour images
  correct patient detection rate (per patient sensitivity and specificity): 100.00%
Prostate cancer lesions; of 26 patients
  patients with no lesions detected on the PET/CT scan: 7
  patients with positive lesions on the PET/CT scan: 19
